Assay results taken from patent US20160199463A1, “HDAC2 DEFENDS VASCULAR ENDOTHELIUM FROM INJURY” (The Johns Hopkins University, priority 2014, published 2016).

Key:
[1] = system: arginase activity in HAECs; experiment: Arginase activity assay (urea production) in HAEC lysates; format: cell-based, human
Experimental: HAEC were lysed using RIPA buffer (50 mM of Tris.HCl, pH 7.5, 0.1 mM EDTA, 0.1% Triton X-100, and protease inhibitor), and centrifuged for 30 min at 14,000 g at 4° C. 50 μL (50-100 μg) of supernatant was added to 75 μl of 10 mM MnCl2 made in Tris-HCl (50 mM, pH 7.5) and heat activated by incubating at 55-60° C. for 10 min. 50 μL of L-Arginine that was prepared in 300 mM Tris-HCL, pH 9.7 were then added to the activated cell lysates to achieve final concentrations of 150 mM and incubated at 37° C. for 3 hrs with shaking. The reaction was stopped by adding 400 μL of an acid solution (H2SO4: H3PO4: H20=1:3:7). For colorimetric determination of urea, α-isonitrosopropiophenone (25 μL, 9% in ethanol) was added and further heated at 100° C. for 45 min. Samples were allowed to cool at room temperature in the dark for 10 min and urea concentration was determined by measuring absorbance at 550 nm using a spectrophotometer.

Arg2 = Arg2 protein expression in HAECs (Western blot); format: cell-based, human
Experimental: (§1) After 48 hrs of HAEC cells transfection, cells were lysed in ice cold RIPA lysis buffer consisting of 20 mM Tris-HCl at pH 7.5, 150 mM NaCl, 1 mM EDTA, 1 mM EGTA, 1% NP40, 1% sodium deoxycholate, 1 mM Na3VO4, 2.5 mM sodium pyrophosphate, 1 mM 3-glycerophosphate, 1 μg/mL leupeptin, and a 1:1000 diluted protease inhibitor cocktail (Sigma). For immunoprecipitation studies, whole cell lysate lysates were centrifuged at 14,000×g and supernatants were precleared by incubation with Protein A/G-agarose beads for 2 h at 4° C. with rocking. Agarose beads were then pelleted by centrifugation at 1,000×g. FLAG-Arg2 in precleared lysates were immunoprecipitated by incubation overnight at 4° C. with rocking following addition of anti-FLAG antibody (10 μl). Immune complexes were eluted in 2×SDS sample buffer by boiling for 5 minutes before loading into SDS-PAGE. Western blotting analysis was performed by transferring the SDS gel onto a PVDF membrane and visualized using secondary antibodies conjugated to alkaline phosphatases.

Arg2 ubiquitination = Arg2 ubiquitination in HAECs (immunoprecipitation); format: cell-based, human; details: preincubation with TSA; MG132 10 μmol/L in all groups
Experimental: as §1
Posttranslational modification by ubiquitin subjects proteins to proteasomal degradation and, therefore, affects their abundance. Because both acetylation and ubiquitination target lysine residues of proteins, there is a significant cross talk between these 2 pathways (Yang et al., 2008 Mol Cell, 31:449-461). […]

human ARG2 promoter = experiment: Human Arg2 promoter assay using luciferase activity in HAECs; format: cell-based
Experimental: Chromosomal DNA was prepared from HAECs using Trizol reagent as per manufacturer's protocol (Life sciences). Promoter fragments of Arg2 were amplified by PCR using specific primer sets as follows.
PI Forward 5′-GGGCTCGAGTGAGGTGAAATAAATTTCAGGAGTTTA-3′ (SEQ ID NO: 24); Reverse 5′-GCCAAGCTTAGCCGGGAGTGAGCGCCACCGCCC-3′ (SEQ ID NO: 25), 1 Kb; PII Forward 5′-GGGCTCGAGATAACCAGCGCTCCCGTTATTCAG-3′ (SEQ ID NO: 26); Reverse 5′-GCCAAGCTTAGCCGGGAGTGAGCGCCACCGCCC-3′ (SEQ ID NO: 27), 0.3 Kb; PIII Forward 5′-GGGCTCGAGGTTCAGGAACCTGGCATGGGCCGG-3′ (SEQ ID NO: 28); Reverse 5′-GCCAAGCTTAGCCGGGAGTGAGCGCCACCGCCC-3′ (SEQ ID NO: 29), 0.65 Kb; PIV Forward 5′-GGGCTCGAGTGAGGTGAAATAAATTTCAGGAGTTTA-3′ (SEQ ID NO: 30); Reverse 5′-GCCAAGCTTCCGGCCCATGCCAGGTTCCTGAAC-3′ (SEQ ID NO: 31), 0.3 kb.
These were cloned into the restriction sites for XhoI and HindIII on the pGL3-enhancer vector (Promega Co.). HAECs were transfected with the plasmids using Fugene 6 reagent (Roche Co.) and luciferase activity was measured by Dual-luciferase reporter assay system (Promega Co.). The luciferase activity was reported as relative luciferase units by dividing firefly luciferase activity by Renilla luciferase activity.

[2] = system: calcium-insensitive eNOS in HEK 293 cells; experiment: NO radicals in medium of HEK 293 cells expressing calcium-insensitive eNOS (DCFH-DiOxyQ assay); format: cell-based, human; details: TSA alone
Experimental: Nitric Oxide levels in HAEC were determined using DAF-DA as per manufacture instructions (Life Sciences). Briefly, cells were loaded with DAF-DA (5 μM) for 20 min and washed 3 times with PBS and incubated for another 30 min in phenol-free media. Fluorescence was determined using a Nikon TE-200 epifluorescence microscope. Images were captured with a Rolera EMC2 camera (Q-Imaging, BC, Canada) with Velocity software (PerkinElmer, Lexington, Mass.). NO production in the cell culture media was also determined by measuring Nitrite levels using a Siever's NO analyzer. NO radicals were measured in cell media collected after 24 hours of treatment using the Oxiselect assay (Cell Biolabs, San Diego, Calif.).
Next, the functional consequences of HDAC inhibition on downstream endothelial cell signaling were evaluated. Because eNOS-derived NO plays a central role in endothelial function, eNOS activity was assessed by measuring NO production using 3 different assays. […] HEK 293 cells lack native eNOS expression, but do produce abundant Arg2. Cell medium from 293 cells transfected with a control plasmid (LacZ) was used as a control background signal that was subtracted from all the groups containing calcium-insensitive endothelial nitric oxide synthase.

HDAC = details: cited from earlier work
SIRT = details: cited from earlier work

Compound: CC(/C=C/C(=O)NO)=C\[C@@H](C)C(=O)c1ccc(N(C)C)cc1 [TSA, trichostatin A]
- HAEC arginase activity, short-term ([1]; 30 minutes, nicotinamide 5 mmol/L, TSA 1 μmol/L): no effect
- total arginase activity ([1]; TSA 400 nmol/L, 18 hours): increased
- Arg2 expression, broad-spectrum HDAC inhibitors (Arg2; 1 μmol/L, 18 hours): upregulated
- concentration of maximum effect on Arg2 protein (Arg2; 18 hours): 1 µmol/L
- Arg2 protein expression, dose dependence (Arg2; TSA 0, 0.1, 0.3, and 1 μmol/L, 18 hours): dose-dependent fashion
- Arg2 expression (Arg2; TSA 400 nmol/L, 18 hours): increased
- time at which increase in Arg2 protein expression is observed (Arg2; TSA 1 μmol/L): 8 h
- ubiquitination of Arg2 (Arg2 ubiquitination): no effects
- Arg2 promoter activity (luciferase) (human ARG2 promoter; TSA 1 μmol/L, 8 hours, versus vehicle): increased
- Arg2 promoter activity, dose dependence (human ARG2 promoter; increasing doses of TSA): dose dependent
- NO production [2]: decreased
- IC50 (HDAC): 1.8 nM
- block of SIRT (SIRT): do not block
